Laboratory results published in ChEMBL document CHEMBL1122865 (J Med Chem, 1985).

Columns and labels:
[1] = target: D(1A) dopamine receptor (Rattus norvegicus) (UniProt P18901); assay: Tested for its ability to stimulate rat caudate adenylate cyclase (Dopamine receptor D1) at 10 uM
[2] = target: D(1A) dopamine receptor (Rattus norvegicus) (UniProt P18901); assay: Tested for its ability to inhibit rat caudate adenylate cyclase (Dopamine receptor D1) at 10 uM
[3] = target: D(2) dopamine receptor (Bos taurus) (UniProt P20288); assay: Ability to inhibit specific [3H]spiroperidol binding to bovine anterior pituitary homogenate, at 10 uM
[4] = organism: Oryctolagus cuniculus; assay: Compound was tested for DA agonistic activity in the isolated perfused rabbit ear artery.; type: functional; settings: read-out: ED50 (the source's name)
[5] = target: D(2) dopamine receptor (Bos taurus) (UniProt P20288); assay: Compound was tested for its ability to inhibit specific [3H]spiroperidol binding to bovine anterior pituitary homogenate, at 10 uM
[6] = organism: Oryctolagus cuniculus; assay: The compound was tested for DA agonistic activity in the isolated perfused rabbit ear artery.; type: functional; settings: read-out: ED50 (the source's name)

Sequence of D(2) dopamine receptor (Bos taurus) (P20288 whole entry, the tested form may be a part): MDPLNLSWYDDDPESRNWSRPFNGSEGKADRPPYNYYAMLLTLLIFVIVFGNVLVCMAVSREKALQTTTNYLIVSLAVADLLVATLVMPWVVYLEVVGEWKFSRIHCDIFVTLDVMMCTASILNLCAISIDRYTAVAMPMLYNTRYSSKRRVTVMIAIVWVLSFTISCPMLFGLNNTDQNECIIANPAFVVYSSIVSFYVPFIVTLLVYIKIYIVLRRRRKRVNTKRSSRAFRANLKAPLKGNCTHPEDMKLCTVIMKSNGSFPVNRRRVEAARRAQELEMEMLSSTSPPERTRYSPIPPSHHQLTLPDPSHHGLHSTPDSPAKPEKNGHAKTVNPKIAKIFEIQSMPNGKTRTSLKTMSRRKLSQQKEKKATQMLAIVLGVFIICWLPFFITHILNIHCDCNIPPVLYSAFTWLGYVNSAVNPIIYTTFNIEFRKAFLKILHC
Sequence of D(1A) dopamine receptor (Rattus norvegicus) (P18901 whole entry): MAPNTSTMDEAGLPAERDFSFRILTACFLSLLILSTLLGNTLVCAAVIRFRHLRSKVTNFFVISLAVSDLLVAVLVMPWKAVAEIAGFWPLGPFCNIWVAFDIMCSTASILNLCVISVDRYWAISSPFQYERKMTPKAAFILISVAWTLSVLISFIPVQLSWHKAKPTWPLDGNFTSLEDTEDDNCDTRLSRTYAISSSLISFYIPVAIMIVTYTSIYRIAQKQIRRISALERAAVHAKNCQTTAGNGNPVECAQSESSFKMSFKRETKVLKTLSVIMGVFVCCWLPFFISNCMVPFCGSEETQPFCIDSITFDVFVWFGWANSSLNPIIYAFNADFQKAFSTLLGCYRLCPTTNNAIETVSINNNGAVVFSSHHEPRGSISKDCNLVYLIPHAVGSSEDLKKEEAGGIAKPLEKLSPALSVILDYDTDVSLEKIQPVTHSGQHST

Structure (SMILES) | Stimulation [1] [%] | inhibition [2] [%] | Displacement [3] [%] | EC50 [4] [nM] | Kb [5] [nM] | EC50 [6] [nM]
Oc1ccc(CCNCCc2ccc(O)c3nc(O)ccc23)cc1 | 2 | 6 | 42 | 136 |  | 
CCCN(CCc1ccc(O)cc1)CCc1ccc(O)c2nc(O)ccc12 | 0 | 0 | 78 | 12.3 | 770 | 
NCCc1ccc(O)c2nc(O)ccc12 | 27 | 1 | 56 | 140 | 4040 | 
CCCN(CCC)CCc1ccc(O)c2[nH]c(=O)ccc12 | 1 | 0 | 19 | 493 |  | 
CCCN(CCC)CCc1ccc(O)c2c1CCC(=O)N2 | 1 | 0 | 40 | 252 | 15100 | 
CCCN(CCc1ccccc1)CCc1ccc(O)c2nc(O)ccc12 | 0 | 6 | 72 | 128 | 2020 | 
COc1ccc(CCN)c2ccc(O)nc12 | 3 | 1 | 9 |  |  | 
COc1ccc(CCNCCc2ccccc2)c2ccc(O)nc12 | 0 | 0 | 9 |  |  | 
NC1CCc2cc(O)c(O)cc2C1 (stereo not given) |  |  |  |  |  | 4.6
NCCc1cccc2nc(O)ccc12 | 1 | 5 | 21 |  |  | 
CCCN(CCC)CCc1cccc2nc(O)ccc12 | 4 | 0 | 30 |  |  | 
NCCc1ccc(O)c(O)c1 [DOPAMINE] |  |  |  |  |  | 37
CCCN(CCC)CCc1ccc(OC)c2nc(O)ccc12 | 3 | 0 | 6 |  |  | 
